The values that follow come from patent publication US20260365732A1, “METHODS OF TREATING CANCER IN SUBJECTS WITH PRIOR IMMUNE CHECKPOINT INHIBITOR EXPOSURE” (Curis, Inc., priority 2023, published 2026).

A short description of series [1]: Study Compound 1-101 (safety, drug exposure, biologic activity and clinical efficacy at 200 mg BID). The format is in vivo, human. From the text:
Three patients with AML or MDS will be enrolled at the designated dose. If none of the first 3 patients experience a dose-limiting toxicity during the first cycle, patients may be enrolled into the next higher dose level. If 1 patient out of the first 3 experiences a dose-limiting toxicity, the dose level may be expanded with an additional 3 patients.

The test system of a further series is bone marrow (BM) blasts. As to the kind of experiment: Clinical study of emavusertib (Compound 1) on bone marrow (BM) blasts in AML / hrMDS patients with vs without prior immune checkpoint inhibitor exposure (FIG. 1A, FIG. 1B). The format is in vivo, human. From the text: FIG. 1A is a graph showing the results of a clinical study for the efficacy of emavusertib (Compound 1) administration on reducing bone marrow (BM) blasts in patients with blood cancer. Blasts are immature white blood cells that are usually found in small numbers in healthy bone marrow. High levels of blasts circulating in the blood are associated with cancer. This clinical study measured the change in blast levels before and after receiving Compound 1 treatment. Here, the relative change in blast levels before and after Compound 1 is compared between patients who had previously received immune checkpoint inhibitors in prior treatment and patients who were naïve to immune checkpoint inhibitors. The comparison groups each contain at least 5 high risk myelodysplastic syndrome (hrMDS) patients and 1 acute myeloid leukemia (AML) patient.
FIG. 1B is a graph showing baseline and best post-treatment blast levels of the subjects in FIG. 1A. […] Each patient is shaded according to their diagnosis.
To support the development of effective treatment regimens with Compound 1, a study was conducted to monitor bone marrow (BM) samples obtained from AML and high risk MDS patients with different prior histories of treatment. […] The present disclosure relates to methods of treating cancer with Compound 1 and other IRAK4 inhibitors or degraders, wherein the subject has a history of treatment with an immune checkpoint inhibitor.
This is a Phase 1, open-label dose escalation and cohort expansion study of Compound 1 as a monotherapy in patients with AML or MDS and in combination with AZA in treatment-naïve, adult patients with AML or hrMDS or in combination with VEN in patients with relapsed/refractory AML or hrMDS, after first line therapy.

With `Cc1cc(-c2nc(C(=O)Nc3cc4oc(N5CCOCC5)nc4nc3N3CC[C@@H](O)C3)co2)ccn1` [Compound 1, emavusertib], in series [1], the “biologic activity and clinical efficacy” value was “signs of biologic activity and clinical efficacy”; the “safety of starting dose level” value is “safe”. In the series with bone marrow (BM) blasts (AML and high risk MDS patients, history of treatment with an immune checkpoint inhibitor vs no prior exposure), the “rate of response, as evidenced by reduced BM blast counts in hematology” value was “higher rate of response”. Moreover, the “relative change in blast levels before and after Compound 1” value in the series with bone marrow (BM) blasts (patients with prior immune checkpoint inhibitors (magrolimab, ipilimumab, or nivolumab + ipilimumab) vs not previously exposed, each group at least 5 hrMDS and 1 AML patient, FIG. 1A) is “significant reduction in blasts”. In addition, the “change in bone marrow blast counts from baseline to best post-baseline” value with bone marrow (BM) blasts (prior immune checkpoint inhibitor exposure compared to no prior exposure, FIG. 1B) was “higher decreases in bone marrow blast counts”. Besides, the “baseline vs best post-baseline bone marrow blasts counts” value in the series with bone marrow (BM) blasts (prior immune checkpoint inhibitor exposure vs without exposure, FIG. 1A) is on record as “significant difference”.
